# Test results from patent US12679807B2 (MERCK SHARP & DOHME LLC, priority 2020, dated 2026).
# Target: T1, GCS enzyme contained within Golgi preparations isolated from human A375 malignant melanoma skin cells (Homo sapiens, UniProt Q16739)
# T1 construct: endogenous levels of GCS enzyme contained within Golgi preparations isolated from human A375 malignant melanoma skin cells; endogenous in cells; host or cells: A375 human malignant melanoma cells (crude Golgi preparation)
# T1 sequence (Q16739 1-394): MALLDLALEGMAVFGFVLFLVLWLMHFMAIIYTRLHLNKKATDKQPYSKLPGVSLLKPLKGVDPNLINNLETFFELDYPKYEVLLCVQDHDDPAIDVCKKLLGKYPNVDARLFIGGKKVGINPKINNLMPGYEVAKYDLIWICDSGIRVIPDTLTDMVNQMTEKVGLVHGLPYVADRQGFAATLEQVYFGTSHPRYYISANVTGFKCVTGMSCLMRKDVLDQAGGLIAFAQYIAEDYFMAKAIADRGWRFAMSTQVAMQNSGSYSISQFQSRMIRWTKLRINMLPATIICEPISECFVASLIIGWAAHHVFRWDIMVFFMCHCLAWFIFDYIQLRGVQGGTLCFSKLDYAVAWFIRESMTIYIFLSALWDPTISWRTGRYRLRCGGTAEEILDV
# Test: UDP-Glo glucosylceramide synthase biochemical assay
# Details: crude Golgi preparation from A375 cells; C6 ceramide and UDP-glucose substrates; 20 h incubation at room temperature; UDP detected by luminescence
# In short: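 Endogenous enzyme in A375 Golgi preparations (1.5 μg total protein) was preincubated 30 min with compound, then reacted 20 h at room temperature with UDP-glucose and ceramide.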
row,EC50,Structure (SMILES)
1,0.24 nM,"Cn1cc(-c2ccc(-c3ccc(Cl)c4c3C(=O)N([C@H](C3CC3)C(C)(C)O)C4)cc2)cn1 [Compound 37, (R)-4-chloro-2-(1-cyclopropyl-2-hydroxy-2-methylpropyl)-7-(4-(1-methyl-1H-pyrazol-4-yl)phenyl)isoindolin-1-one]"
2,4.8 nM,"CN1C(=O)Cc2ccc(-c3cccc4c3C(=O)N([C@H](C3CC3)C(C)(C)O)C4)cc21 [Compound 84, (R)-6-(2-(1-cyclopropyl-2-hydroxy-2-methylpropyl)-3-oxoisoindolin-4-yl)-1-methylindolin-2-one]"
3,0.25 nM,"Cc1nnc(-c2ccc(-c3c(F)cc(Cl)c4c3C(=O)N([C@H](C3CC3)C(C)(C)O)C4)cc2)o1 [Compound 41, (R)-4-chloro-2-(1-cyclopropyl-2-hydroxy-2-methylpropyl)-6-fluoro-7-(4-(5-methyl-1,3,4-oxadiazol-2-yl)phenyl)isoindolin-1-one]"
4,2.5 nM,"COc1nccc(C(=O)Nc2cccc3c2C(=O)N([C@H](C2CC2)C(C)(C)O)C3)c1C [Compound 159, (R)-N-(2-(1-cyclopropyl-2-hydroxy-2-methylpropyl)-3-oxoisoindolin-4-yl)-2-methoxy-3-methylisonicotinamide]"
5,12 nM,"COc1cc(C#N)nc(-c2cccc3c2C(=O)N([C@H](C2CC2)C(C)(C)O)C3)c1 [Compound 97, (R)-6-(2-(1-cyclopropyl-2-hydroxy-2-methylpropyl)-3-oxoisoindolin-4-yl)-4-methoxypicolinonitrile]"
6,43 nM,"CCOc1ccccc1C(=O)Nc1cccc2c1C(=O)N(C(C1CC1)C1CC1)C2 [Compound 98, N-(2-(Dicyclopropylmethyl)-3-oxoisoindolin-4-yl)-2-ethoxybenzamide]"
7,0.39 nM,"Cn1nc(C(F)(F)F)c2cc(-c3cccc4c3C(=O)N([C@H](C3CC3)C(C)(C)O)C4)ccc21 [Compound 80, (R)-2-(1-cyclopropyl-2-hydroxy-2-methylpropyl)-7-(1-methyl-3-(trifluoromethyl)-1H-indazol-5-yl)isoindolin-1-one]"
8,350 nM,"Cc1nnc(-c2ccc(-c3ccnc4c3C(=O)N(C(C3CC3)C(C)(C)O)C4)cc2)o1 (single isomer, unassigned) [Compound 33, (R or S)-6-(1-cyclopropyl-2-hydroxy-2-methylpropyl)-4-(4-(5-methyl-1,3,4-oxadiazol-2-yl)phenyl)-6,7-dihydro-5H-pyrrolo[3,4-b]pyridin-5-one]"
9,230 nM,"CC(C)(O)C(C1CC1)N1Cc2cccc(/C=C/c3ccnc4c3CCC4)c2C1=O (single isomer, unassigned) [Compound 171, (R or S)-(E)-2-(1-Cyclopropyl-2-hydroxy-2-methylpropyl)-7-(2-(6,7-dihydro-5H-cyclopenta[b]pyridin-4-yl)vinyl)isoindolin-1-one]"
10,0.1 nM,"COc1ncc(Cl)c(C(=O)Nc2cccc3c2C(=O)N(C(C2CC2)C(C)(C)O)C3)c1C (single isomer, unassigned) [Compound 154, (R or S)-5-Chloro-N-(2-(1-cyclopropyl-2-hydroxy-2-methylpropyl)-3-oxoisoindolin-4-yl)-2-methoxy-3-methylisonicotinamide]"
11,26 nM,"CCc1nnc(-c2ccc(-c3cccc4c3C(=O)N([C@H](C3CC3)C(C)(C)O)C4)cc2)o1 [Compound 76, (R)-2-(1-cyclopropyl-2-hydroxy-2-methylpropyl)-7-(4-(5-ethyl-1,3,4-oxadiazol-2-yl)phenyl)isoindolin-1-one]"
12,0.98 nM,"Cc1nnc(-c2ccc(-c3c(Cl)ccc4c3C(=O)N([C@H](C3CC3)C(C)(C)O)C4)cc2)o1 [Compound 40, (R)-6-chloro-2-(1-cyclopropyl-2-hydroxy-2-methylpropyl)-7-(4-(5-methyl-1,3,4-oxadiazol-2-yl)phenyl)isoindolin-1-one]"
13,110 nM,"CC(C)(O)[C@@H](C1CC1)N1Cc2cccc(-c3ccc(-n4ccnn4)cc3)c2C1=O [Compound 69, (R)-7-(4-(1H-1,2,3-triazol-1-yl)phenyl)-2-(1-cyclopropyl-2-hydroxy-2-methylpropyl)isoindolin-1-one]"
14,30 nM,"CC(C)[C@H](CO)N1Cc2cccc(NC(=O)c3nc(C(F)(F)F)ccc3Cl)c2C1=O [Compound 125, (R)-3-chloro-N-(2-(1-hydroxy-3-methylbutan-2-yl)-3-oxoisoindolin-4-yl)-6-(trifluoromethyl)picolinamide]"
15,18 nM,"Cc1ccc(Cl)c(C(=O)Nc2cccc3c2C(=O)N([C@@H](CO)C(C)C)C3)c1F [Compound 122, (R)-6-chloro-2-fluoro-N-(2-(1-hydroxy-3-methylbutan-2-yl)-3-oxoisoindolin-4-yl)-3-methylbenzamide]"
16,2 nM,"O=C(Nc1cccc2c1C(=O)N(C(C1CC1)C1CC1)C2)c1c(Br)ccc2c1OCO2 [Compound 109, 5-Bromo-N-(2-(dicyclopropylmethyl)-3-oxoisoindolin-4-yl)-benzo[d][1,3]dioxole-4-carboxamide]"
17,180 nM,"Cc1cnc(-c2ccc(-c3cccc4c3C(=O)N([C@H](C3CC3)C(C)(C)O)C4)cc2)o1 [Compound 64, (R)-2-(1-Cyclopropyl-2-hydroxy-2-methylpropyl)-7-(4-(5-methyloxazol-2-yl)phenyl)isoindolin-1-one]"
18,28 nM,"COc1ccc(-c2cccc3c2C(=O)N(C(C2CC2)C(C)(C)O)C3)cc1OC (racemic) [Compound 19, (R and S)-2-(1-cyclopropyl-2-hydroxy-2-methylpropyl)-7-(3,4-dimethoxyphenyl) isoindolin-1-one]"
19,64 nM,"COc1ccc2ncc(F)c(C(=O)Nc3cccc4c3C(=O)N(CC3CC3)C4)c2n1 [Compound 135, N-(2-(cyclopropylmethyl)-3-oxoisoindolin-4-yl)-3-fluoro-6-methoxy-1,5-naphthyridine-4-carboxamide]"
20,120 nM,"C[C@@H](C1CC1)N1Cc2cccc(NC(=O)c3ccnc4c3CCC4)c2C1=O [Compound 140, (S)-N-(2-(1-cyclopropylethyl)-3-oxoisoindolin-4-yl)-6,7-dihydro-5H-cyclopenta[b]pyridine-4-carboxamide]"
21,35 nM,"CC(C)(O)C(C1CC1)N1Cc2cccc(OCc3ccnc4c3CCC4)c2C1=O (single isomer, unassigned) [Compound 180, (R or S)-2-(1-cyclopropyl-2-hydroxy-2-methylpropyl)-7-((6,7-dihydro-5H-cyclopenta[b]pyridin-4-yl)methoxy)isoindolin-1-one]"
22,550 nM,"CCOc1ccccc1C(=O)Nc1cccc2c1C(=O)N(C1CN3CCC1CC3)C2 (racemic) [Compound 107, (R and S)-2-Ethoxy-N-(3-oxo-2-(quinuclidin-3-yl)isoindolin-4-yl)benzamide]"
23,200 nM,"COC(C)(C)C(C1CC1)N1Cc2cccc(NC(=O)c3ccnc4c3CCC4)c2C1=O (single isomer, unassigned) [Compound 165, (R or S)-N-(2-(1-cyclopropyl-2-methoxy-2-methylpropyl)-3-oxoisoindolin-4-yl)-6,7-dihydro-5H-cyclopenta[b]pyridine-4-carboxamide]"
24,9.4 nM,"Cn1cc(-c2ccc(-c3ccc(O)c4c3C(=O)N([C@H](C3CC3)C(C)(C)O)C4)cc2)cn1 [Compound 60, (R)-2-(1-cyclopropyl-2-hydroxy-2-methylpropyl)-4-hydroxy-7-(4-(1-methyl-1H-pyrazol-4-yl)phenyl) isoindolin-1-one]"
25,1.5 nM,"CC(C)(O)C(C1CC1)N1Cc2cccc(NC(=O)c3c(F)ccc(F)c3Cl)c2C1=O (single isomer, unassigned) [Compound 115, (R or S)-2-chloro-N-(2-(1-cyclopropyl-2-hydroxy-2-methylpropyl)-3-oxoisoindolin-4-yl)-3,6-difluorobenzamide]"
26,7.2 nM,"Cc1c(F)cccc1C(=O)Nc1cccc2c1C(=O)N(C(C1CC1)C(C)(C)O)C2 (single isomer, unassigned) [Compound 119, (R or S)-N-(2-(1-cyclopropyl-2-hydroxy-2-methylpropyl)-3-oxoisoindolin-4-yl)-3-fluoro-2-methylbenzamide]"
27,54 nM,"Cc1cnc2c(c1COc1cccc3c1C(=O)N(C(C1CC1)C(C)(C)O)C3)OCO2 (single isomer, unassigned) [Compound 181]"
28,0.8 nM,"Cc1nnc(-c2ccc(-c3cc(Cl)cc4c3C(=O)N(C(C3CC3)C(C)(C)O)C4)cc2)o1 (single isomer, unassigned) [Compound 39, (R or S)-5-chloro-2-(1-cyclopropyl-2-hydroxy-2-methylpropyl)-7-(4-(5-methyl-1,3,4-oxadiazol-2-yl)phenyl)isoindolin-1-one]"
29,260 nM,"CCOc1ccccc1C(=O)Nc1cccc2c1C(=O)N([C@@H](CO)C1CC1)C2 [Compound 102, (R)-N-(2-(1-cyclopropyl-2-hydroxyethyl)-3-oxoisoindolin-4-yl)-2-ethoxybenzamide]"
30,560 nM,"O=C(Nc1ccc(Cl)c2c1C(=O)N(CC1CC1)C2)c1ccnc2c1CCC2 [Compound 147, N-(7-chloro-2-(cyclopropylmethyl)-3-oxoisoindolin-4-yl)-6,7-dihydro-5H-cyclopenta[b]pyridine-4-carboxamide]"

row,Structure (SMILES),EC50
1,"CN(C(=O)OC1CN2CCC1CC2)c1cccc2c1C(=O)N(c1ccc(F)cc1)C2 (racemic) [Compound 170, (R and S)-Quinuclidin-3-yl(2-(4-fluorophenyl)-3-oxoisoindolin-4-yl)(methyl)carbamate]",130 nM
